Test results published in patent US11957696B2 (Propella Therapeutics, Inc., priority 2021, dated 2024).

How the values were obtained:
[1] = format: physicochemical
Description: The solids were filtered and analyzed by XRD to determine the resulting form(s). The solvents used in this study include: water, acetonitrile, isopropyl ether/acetonitrile (1:4), 2-butanol/water (1:1), 1-propanol/water (1:1), t-butanol/water (1:1), ethanol/water (1:1), THF/water (1:1), acetone/water (1:1), dioxane/water (1:1), 2-butanone/water (1:1), methanol, DMF/water (1:1), ethyl acetate/water (1:1), and heptane.
A competitive study was also carried out. […] Samples were stirred for 3 days and filtered.

[2] = IM injection of aqueous suspension and vegetable oil solution of abiraterone acetate; format: in vivo; conditions: vegetable oil solution compared with aqueous suspension, rats
Description: Typically, the abiraterone prodrugs of the present disclosure are formulated as a non-aqueous solution or suspension. […] For example, as detailed herein, IM injections of an aqueous suspension and a vegetable oil solution of the abiraterone acetate prodrug were evaluated in rats. […] Accordingly, in some embodiments, the abiraterone prodrug formulations herein can include an abiraterone prodrug of the present disclosure (e.g., compound of Formula I or II) dissolved or dispersed in a pharmaceutically acceptable carrier. In some embodiments, the pharmaceutically acceptable carrier can be any suitable nonaqueous vehicle suitable for injection, such as those described in U.S. Pharmacopeia. In some embodiments, the pharmaceutically acceptable carrier can be a pharmaceutically acceptable oil, e.g., a vegetable oil, castor oil, corn oil, sesame oil, cottonseed oil, peanut oil, poppy seed oil, tea seed oil, or soybean oil. In some embodiments, the pharmaceutically acceptable oil can be oils (e.g., described herein), suitable for use as vehicles for injection, e.g., meeting the criteria as described in the corresponding U.S. Pharmacopeia monograph. In some embodiments, the pharmaceutically acceptable oil can be an oil of vegetable origin suitable for use as vehicles for injection. […]

Compound | thermodynamic stability of polymorph [1] | blood plasma levels and duration of exposure of abiraterone [2]
CCCCCCCCCC(=O)O[C@H]1CC[C@@]2(C)C(=CC[C@@H]3[C@@H]2CC[C@]2(C)C(c4cccnc4)=CC[C@@H]32)C1 [Form A, abiraterone decanoate] | thermodynamically stable form under ambient conditions | –
CC(=O)O[C@H]1CC[C@@]2(C)C(=CC[C@@H]3[C@@H]2CC[C@]2(C)C(c4cccnc4)=CC[C@@H]32)C1 [abiraterone acetate, (3β)-17-(3-Pyridyl)androsta-5, acetate] | – | highest blood plasma levels and the longest duration of exposure
